Series [1] has as its system sputum macrophages from COPD patients. The series can be described thus: Cytokine production in LPS-treated sputum macrophages from COPD patients. It counts as cell-based, human. As to the method:
Patients with COPD inhaled a nebulised solution of 3% (w/v) hypertonic saline using an ultrasonic nebuliser (Devilbiss, Carthage, Mo.) with tidal breathing for 5 min. This procedure was repeated a maximum of three times until enough sputum was obtained. The sputum samples were homogenized and mixed vigorously using a vortex mixer in 0.02% v/v dithiothreitol (DTT) solution. The samples were re-suspended in PBS (40 mL) followed by centrifugation at 1500 rpm at 4° C. for 10 min to obtain sputum cell pellets. The pellets were washed with PBS (40 mL). The sputum cells were then re-suspended in 4 mL macrophage serum-free medium (macrophage-SFM, Life technologies, containing 20 U/mL penicillin, 0.02 mg/mL streptomycin and 5 μg/mL amphotericin B) and seeded on high bound 96-well plate, followed by incubation for 1 h at 37° C. and at 5% CO2 to allow the macrophages to attach to the bottom of the plate. The cells on the plate were washed with fresh macrophage-SFM (200 μL/well) to remove neutrophils and other contaminated cells. The adherent cells (mainly sputum macrophages) on the plate were used for further analysis. Sputum inductions were conducted in Quintiles Drug Research Unit at Guys Hospital and ethics approval and written informed consent was obtained by Quintiles.
Where appropriate, 1 μL of a solution containing either the test compound or reference article at the stated concentrations (either 0.1 μg/mL, 0.01 μg/mL, or 0.001 μg/mL) or alternatively 1 μL of DMSO as the vehicle control was added to each well (200 μL in media) and the cells were incubated for 2 h. The cells were stimulated with LPS solution (50 μL, final concentration: 1 μg/mL) and incubated for 18 h at 37° C. and 5% CO2. The supernatant was then collected and kept at −80° C. Suitable luminex kits were used to measure the selected analytes. After thawing the supernatant, the magnetic antibody beads were multiplexed and incubated in a 96-well plate with standard, background solution or the appropriate volume of sample overnight with shaking at 4° C. After washing twice with 200 μL of wash buffer provided by the kit per well using a magnetic plate washer, the beads were incubated for 1 h at RT with the biotin conjugated antibody solution provided by the kit with shaking. Streptavidin solution was added for 30 min with shaking at RT. After washing with 200 μL wash buffer per well, the beads were resuspended in sheath fluid (150 μL) and analyzed immediately. The level of each analyte in the supernatant was calculated using Xcel Fit software with a 4 or 5-parameter equation using each standard curve. The inhibitions of each cytokine production were calculated at each concentration by comparison with vehicle control.

For series [2], the system named is alveolar macrophages and neutrophils in BALF. The series can be described thus: Cigarette smoke model: macrophages and neutrophils in BALF. It counts as in vivo, A/J mice. Particulars: mice; for Cell numbers in BALF, Macrophage / Cell numbers in BALF, Macrophage, % inhibition / Cell numbers in BALF, Neutrophil / Cell numbers in BALF, Neutrophil, % inhibition: tobacco smoke. As to the method: A/J mice (males, 5 weeks old) were exposed to cigarette smoke (4% cigarette smoke, diluted with air) for 30 min/day for 11 days using a Tobacco Smoke Inhalation Experiment System for small animals (Model SIS-CS; Sibata Scientific Technology, Tokyo, Japan). […] At 12 h after the last […], each of the animals was anesthetized, the trachea cannulated and bronchoalveolar lavage fluid (BALF) was collected. The numbers of alveolar macrophages and neutrophils were determined by FACS analysis (EPICS® ALTRA II, Beckman Coulter, Inc., Fullerton, Calif., USA) using anti-mouse MOMA2 antibody (macrophage) or anti-mouse 7/4 antibody (neutrophil). BALF was centrifuged and the supernatant was collected. The level of keratinocyte chemoattractant (KC; CXCL1) in BALF was quantitated using a Quantikine® mouse KC ELISA kit (R&D systems, Inc., Minneapolis, Minn., USA).

Another series relates to PBMCs (mitosis). The series can be described thus: Cell mitosis assay in PHA-treated PBMCs. It counts as cell-based, human. On the procedure:
Peripheral blood mononucleocytes (PBMCs) from healthy subjects were separated from whole blood (Quintiles, London, UK) using a density gradient (Histopaquee-1077, Sigma-Aldrich, Poole, UK). The PBMCs (3 million cells per sample) were subsequently treated with 2% PHA (Sigma-Aldrich, Poole, UK) for 48 h, followed by a 20 h exposure to varying concentrations of test compounds. At 2 h before collection, PBMCs were treated with demecolcine (0.1 μg/mL; Life Technologies, Paisley, UK,) to arrest cells in metaphase.

pIC50: −log10 of the molar value.

On to `Cc1ccc(-n2nc(C(C)(C)C)cc2NC(=O)Nc2ccc(OCc3ccnc(Nc4cnccn4)c3)c3ccccc23)cc1` [Example 1, 1-(3-(tert-Butyl)-1-(p-tolyl)-1H-pyrazol-5-yl)-3-(4-((2-(pyrazin-2-ylamino)pyridin-4-yl)methoxy)naphthalen-1-yl)urea], for which the “inhibition of pro-inflammatory cytokine production in sputum macrophage compared with fluticasone propionate” value in series [1] is “higher efficacy”. Besides, the pIC50 in series [1] (Homo sapiens, Macrophage, IL-6, sputum macrophages from COPD patients) was 7.55. In addition, the inhibition at 0.1 µg/mL in series [1] (Homo sapiens, Macrophage, read-out: E-max (maximum inhibition), IL-6 production in LPS-treated sputum macrophages) amounted to 60%. For the same compound, in series [2] (0.07 μg/mouse), the “Cell numbers in BALF, Macrophage” value worked out at 172700 mL⁻¹; the “Cell numbers in BALF, Macrophage, % inhibition” value was 10.2%; the “Cell numbers in BALF, Neutrophil” value is 94200 mL⁻¹; the “Cell numbers in BALF, Neutrophil, % inhibition” value came out at 13.7%. In addition, in series [2] (0.7 μg/mouse), the “Cell numbers in BALF, Macrophage” value is 149200 mL⁻¹; the “Cell numbers in BALF, Macrophage, % inhibition” value is on record as 26.5%; the “Cell numbers in BALF, Neutrophil” value was determined as 76600 mL⁻¹; the “Cell numbers in BALF, Neutrophil, % inhibition” value is given as 33.7%. Further, in series [2] (7 μg/mouse), the “Cell numbers in BALF, Macrophage” value was 113400 mL⁻¹; the “Cell numbers in BALF, Macrophage, % inhibition” value stood at 51.1%; the “Cell numbers in BALF, Neutrophil” value stood at 60400 mL⁻¹; the “Cell numbers in BALF, Neutrophil, % inhibition” value is 52.0%. In series [2], the “macrophage and neutrophil accumulation in BALF induced by cigarette smoke (in words)” value was “dose-dependent inhibition”. In addition, in the series with PBMCs (mitosis), the “impact on cell division (mitosis) compared with Reference Compound” value is recorded as “markedly less activity”. The inhibition at 5 µg/mL in the series with PBMCs (mitosis) (Homo sapiens, PBMC, 5 μg/mL, PBMC, Table 5A, read-out: Mitosis Assay % Inhibition at 5 μg/mL in PBMC Cells) amounted to 29.9%.

The values above are taken from US11142515B2, “Pyrazolyl-ureas as kinase inhibitors” (RESPIVERT LIMITED, priority 2014, dated 2021).
